Calls of active or inactive are those of the source.
What was measured:
Vero [1] = assay: inhibition of WNV-induced cytopathic effect – cell-based, CPE readout (AID 1621); assay type: functional; conditions: Chlorocebus sabaeus
Vero [2] = assay: mammalian cell viability reduction – secondary assay, cytotoxicity control for West Nile virus antiviral project, dose response (AID 1650); assay type: functional; conditions: Chlorocebus sabaeus
[3] = molecular target: Sphingosine 1-phosphate receptor 2 (Homo sapiens, UniProt O95136); assay: Dose Response Cell Based Assay for Agonists of the S1P2 Receptor of Purchased Analogues. [Related pubchem assays: 729, 843, 854, 736 ]; assay type: functional
Chain of Sphingosine 1-phosphate receptor 2 (O95136 whole entry): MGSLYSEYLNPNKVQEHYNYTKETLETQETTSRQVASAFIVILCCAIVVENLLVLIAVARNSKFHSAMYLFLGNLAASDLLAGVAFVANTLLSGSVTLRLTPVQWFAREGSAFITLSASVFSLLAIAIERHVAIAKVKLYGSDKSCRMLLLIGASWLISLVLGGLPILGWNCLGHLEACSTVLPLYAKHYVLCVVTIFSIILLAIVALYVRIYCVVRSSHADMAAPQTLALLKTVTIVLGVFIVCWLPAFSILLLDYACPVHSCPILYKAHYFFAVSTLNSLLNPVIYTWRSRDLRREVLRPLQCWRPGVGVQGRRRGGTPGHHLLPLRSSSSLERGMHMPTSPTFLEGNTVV

Beta-galactosidase = Beta-galactosidase (Escherichia coli, UniProt Q8VNN2); assay: PubChem AID 485352; assay type: functional
Chain of Beta-galactosidase (Q8VNN2 whole entry): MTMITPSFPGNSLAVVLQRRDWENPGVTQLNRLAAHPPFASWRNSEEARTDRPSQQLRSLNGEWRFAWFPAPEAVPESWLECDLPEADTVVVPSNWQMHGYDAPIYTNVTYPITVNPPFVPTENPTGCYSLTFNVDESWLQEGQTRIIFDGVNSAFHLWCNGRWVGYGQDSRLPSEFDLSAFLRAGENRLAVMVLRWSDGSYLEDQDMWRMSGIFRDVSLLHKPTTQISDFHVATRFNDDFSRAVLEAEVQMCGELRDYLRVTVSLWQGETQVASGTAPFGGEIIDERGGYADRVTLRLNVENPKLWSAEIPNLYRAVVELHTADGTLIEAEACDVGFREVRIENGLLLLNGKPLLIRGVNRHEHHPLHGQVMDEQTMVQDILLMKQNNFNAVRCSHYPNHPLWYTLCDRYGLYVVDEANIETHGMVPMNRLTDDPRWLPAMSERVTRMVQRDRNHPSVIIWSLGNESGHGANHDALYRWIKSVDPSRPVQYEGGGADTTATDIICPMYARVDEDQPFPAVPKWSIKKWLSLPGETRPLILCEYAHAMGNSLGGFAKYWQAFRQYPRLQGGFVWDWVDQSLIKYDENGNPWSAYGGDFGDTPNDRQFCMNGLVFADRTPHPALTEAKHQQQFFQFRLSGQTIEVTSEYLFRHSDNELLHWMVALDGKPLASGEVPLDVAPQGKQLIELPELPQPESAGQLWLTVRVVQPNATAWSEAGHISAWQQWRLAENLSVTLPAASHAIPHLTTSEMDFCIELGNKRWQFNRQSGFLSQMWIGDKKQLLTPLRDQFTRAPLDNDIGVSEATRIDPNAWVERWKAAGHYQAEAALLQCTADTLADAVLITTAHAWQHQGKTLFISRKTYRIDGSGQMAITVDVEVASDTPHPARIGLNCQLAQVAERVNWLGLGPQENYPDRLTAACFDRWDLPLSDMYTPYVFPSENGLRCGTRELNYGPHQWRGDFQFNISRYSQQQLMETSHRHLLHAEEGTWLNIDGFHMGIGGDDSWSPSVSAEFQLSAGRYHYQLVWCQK

[4] = molecular target: Protein-tyrosine kinase 2-beta (Homo sapiens, UniProt Q14289);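 further: potency of inhibitors of PYK2 kinase phosphorylation of poly-GT substrate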
Chain of Protein-tyrosine kinase 2-beta (Q14289 whole entry): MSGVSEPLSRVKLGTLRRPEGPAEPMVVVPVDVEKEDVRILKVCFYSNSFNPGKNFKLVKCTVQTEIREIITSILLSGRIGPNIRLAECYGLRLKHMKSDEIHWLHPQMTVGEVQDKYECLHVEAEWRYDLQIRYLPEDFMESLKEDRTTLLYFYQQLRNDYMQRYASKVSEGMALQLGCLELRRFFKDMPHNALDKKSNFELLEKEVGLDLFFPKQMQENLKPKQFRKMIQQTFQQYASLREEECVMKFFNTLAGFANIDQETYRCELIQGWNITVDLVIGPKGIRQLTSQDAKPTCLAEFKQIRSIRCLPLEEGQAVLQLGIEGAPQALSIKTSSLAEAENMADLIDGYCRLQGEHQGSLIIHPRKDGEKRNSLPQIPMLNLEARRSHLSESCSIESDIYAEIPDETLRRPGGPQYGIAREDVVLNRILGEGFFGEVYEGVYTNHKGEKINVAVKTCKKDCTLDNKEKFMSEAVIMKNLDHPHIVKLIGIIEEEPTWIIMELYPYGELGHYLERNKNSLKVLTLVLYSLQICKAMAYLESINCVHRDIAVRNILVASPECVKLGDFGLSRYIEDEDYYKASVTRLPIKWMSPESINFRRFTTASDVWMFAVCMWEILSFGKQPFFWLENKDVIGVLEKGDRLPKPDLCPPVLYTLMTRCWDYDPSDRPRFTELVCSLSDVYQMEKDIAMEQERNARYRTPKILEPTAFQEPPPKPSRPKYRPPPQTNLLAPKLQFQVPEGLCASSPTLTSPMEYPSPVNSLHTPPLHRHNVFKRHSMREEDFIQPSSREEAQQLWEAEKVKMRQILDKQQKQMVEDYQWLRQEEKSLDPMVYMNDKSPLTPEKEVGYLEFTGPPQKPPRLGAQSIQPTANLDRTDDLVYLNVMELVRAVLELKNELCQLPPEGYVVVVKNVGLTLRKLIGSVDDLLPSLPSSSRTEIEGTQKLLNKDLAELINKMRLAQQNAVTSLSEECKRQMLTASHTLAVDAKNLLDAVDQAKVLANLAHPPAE

[5] = molecular target: T1, Type-1 angiotensin II receptor (Homo sapiens, UniProt P30556); assay: antagonism of angiotensin II type 1 receptor – cell-based, uHTS hits, selectivity assay for APJ receptor antagonist project, dose response (AID 463214); assay type: functional;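 further: antagonist potency against angiotensin II stimulated AT1 response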
T1 sequence (P30556 whole entry): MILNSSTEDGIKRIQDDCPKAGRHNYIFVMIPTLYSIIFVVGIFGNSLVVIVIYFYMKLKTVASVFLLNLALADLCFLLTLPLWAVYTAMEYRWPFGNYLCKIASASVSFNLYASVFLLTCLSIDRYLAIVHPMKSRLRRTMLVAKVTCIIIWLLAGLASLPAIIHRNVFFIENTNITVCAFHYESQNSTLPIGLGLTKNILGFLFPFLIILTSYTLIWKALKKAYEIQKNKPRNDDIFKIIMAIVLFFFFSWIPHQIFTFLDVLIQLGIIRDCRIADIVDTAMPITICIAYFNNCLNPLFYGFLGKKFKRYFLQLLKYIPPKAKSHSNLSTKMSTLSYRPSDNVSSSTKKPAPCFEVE

Estrogen receptor beta [6] = molecular target: T2, Estrogen receptor beta (Homo sapiens, UniProt Q92731);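 further: recombinant ER-beta bound to coactivator SRC1 peptide in presence of estradiol agonist; inhibitors block coactivator peptide binding and lower the FRET signal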
T2 sequence (Q92731 whole entry): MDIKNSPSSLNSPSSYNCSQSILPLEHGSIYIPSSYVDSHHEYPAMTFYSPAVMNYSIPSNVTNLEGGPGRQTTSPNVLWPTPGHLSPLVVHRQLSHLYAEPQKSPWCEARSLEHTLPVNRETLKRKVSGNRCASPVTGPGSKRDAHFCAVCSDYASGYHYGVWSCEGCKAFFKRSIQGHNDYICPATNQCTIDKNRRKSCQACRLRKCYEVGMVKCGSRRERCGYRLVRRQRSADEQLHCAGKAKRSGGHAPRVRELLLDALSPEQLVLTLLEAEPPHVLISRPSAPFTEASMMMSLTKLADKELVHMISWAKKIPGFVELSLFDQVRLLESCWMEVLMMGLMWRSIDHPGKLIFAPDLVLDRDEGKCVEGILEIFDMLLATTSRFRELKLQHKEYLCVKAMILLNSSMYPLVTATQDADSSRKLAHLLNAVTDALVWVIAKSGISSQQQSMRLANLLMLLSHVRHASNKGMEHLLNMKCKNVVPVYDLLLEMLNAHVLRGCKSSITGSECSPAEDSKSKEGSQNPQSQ

Estrogen receptor = molecular target: T3, Estrogen receptor (Homo sapiens, UniProt P03372);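 further: potency for inhibiting coactivator peptide recruitment to the receptor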
T3 sequence (P03372 whole entry): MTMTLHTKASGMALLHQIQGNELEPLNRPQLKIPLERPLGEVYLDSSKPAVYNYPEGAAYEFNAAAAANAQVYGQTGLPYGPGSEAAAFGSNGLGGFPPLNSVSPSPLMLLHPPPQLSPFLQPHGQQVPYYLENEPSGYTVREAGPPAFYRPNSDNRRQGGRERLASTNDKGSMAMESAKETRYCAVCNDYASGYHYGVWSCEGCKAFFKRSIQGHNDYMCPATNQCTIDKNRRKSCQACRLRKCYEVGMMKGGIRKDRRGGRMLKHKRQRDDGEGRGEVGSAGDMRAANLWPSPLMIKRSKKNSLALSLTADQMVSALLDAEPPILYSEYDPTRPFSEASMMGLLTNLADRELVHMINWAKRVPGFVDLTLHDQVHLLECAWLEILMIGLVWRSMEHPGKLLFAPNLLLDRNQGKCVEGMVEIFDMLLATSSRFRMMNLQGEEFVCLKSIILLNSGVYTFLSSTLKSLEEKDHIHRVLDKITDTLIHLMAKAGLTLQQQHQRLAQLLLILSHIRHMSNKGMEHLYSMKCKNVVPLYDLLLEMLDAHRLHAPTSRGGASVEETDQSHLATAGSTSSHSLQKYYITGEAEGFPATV

[7] = molecular target: T4, Carboxy-terminal domain RNA polymerase II polypeptide A small phosphatase 1 (Homo sapiens, UniProt Q9GZU7); assay: CTDSP1 inhibitors, concentration-response, biochemical, absorbance readout, ultra-high-throughput screen actives (AID 540297); assay type: functional
T4 sequence (Q9GZU7 whole entry): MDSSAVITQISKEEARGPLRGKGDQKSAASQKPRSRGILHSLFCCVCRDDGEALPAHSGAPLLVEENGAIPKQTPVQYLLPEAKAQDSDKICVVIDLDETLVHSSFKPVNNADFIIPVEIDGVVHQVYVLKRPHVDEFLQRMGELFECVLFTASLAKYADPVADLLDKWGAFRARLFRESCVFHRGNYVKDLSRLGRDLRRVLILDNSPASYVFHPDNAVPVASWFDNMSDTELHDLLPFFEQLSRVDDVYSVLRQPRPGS

Genome polyprotein = Genome polyprotein (Hepatitis C virus, UniProt Q2Q167); assay: disruption of hepatitis C core self-association – biochemical, TR-FRET, dose response (AID 2159); set-up: species or system Hepacivirus hominis;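 further: blocks dimerization of HCV core protein measured by TR-FRET between tagged core106 pairs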
Chain of Genome polyprotein (Q2Q167 whole entry): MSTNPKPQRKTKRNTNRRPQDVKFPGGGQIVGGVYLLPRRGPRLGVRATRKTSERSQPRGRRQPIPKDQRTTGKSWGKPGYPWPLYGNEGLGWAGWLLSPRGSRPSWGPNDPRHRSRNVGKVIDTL

[8] = molecular target: Eukaryotic translation initiation factor 4E (Mus musculus, UniProt P63073); assay: blockers of eIF4G binding by eIF4E – biochemical, TR-FRET, dose response (AID 855); assay type: functional;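 further: potency for disrupting eIF4E binding to eIF4GI seen as loss of FRET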
Chain of Eukaryotic translation initiation factor 4E (P63073 whole entry): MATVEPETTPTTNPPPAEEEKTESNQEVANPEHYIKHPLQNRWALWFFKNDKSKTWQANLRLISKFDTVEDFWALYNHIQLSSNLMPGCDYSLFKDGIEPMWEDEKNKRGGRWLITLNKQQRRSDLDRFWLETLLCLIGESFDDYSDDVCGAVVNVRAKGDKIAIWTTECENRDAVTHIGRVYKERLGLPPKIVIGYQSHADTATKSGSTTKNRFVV

[9] = molecular target: T5, Dual specificity protein phosphatase 6 (Rattus norvegicus, UniProt Q64346); assay: inhibition of rat DUSP6 enzyme activity – biochemical, in vitro, primary screen (AID 425)
T5 sequence (Q64346 whole entry): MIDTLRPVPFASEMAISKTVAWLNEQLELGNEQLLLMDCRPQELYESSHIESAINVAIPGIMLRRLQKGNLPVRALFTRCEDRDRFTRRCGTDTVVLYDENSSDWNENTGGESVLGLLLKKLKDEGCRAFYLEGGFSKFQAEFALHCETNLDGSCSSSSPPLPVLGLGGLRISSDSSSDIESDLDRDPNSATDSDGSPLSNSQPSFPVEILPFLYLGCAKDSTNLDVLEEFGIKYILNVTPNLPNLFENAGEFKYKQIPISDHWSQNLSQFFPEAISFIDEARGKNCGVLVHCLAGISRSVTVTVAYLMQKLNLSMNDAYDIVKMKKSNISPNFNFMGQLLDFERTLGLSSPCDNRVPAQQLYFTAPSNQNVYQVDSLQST

Estrogen receptor beta [10] = molecular target: T2, Estrogen receptor beta; assay: blockers of SRC-3 recruitment to ERβ – biochemical, ELISA, streptavidin-HRP readout, orthogonal assay, confirmation (AID 1060)
[11] = molecular target: Glyceraldehyde-3-phosphate dehydrogenase (Homo sapiens, UniProt P04406)
Chain of Glyceraldehyde-3-phosphate dehydrogenase (P04406 whole entry): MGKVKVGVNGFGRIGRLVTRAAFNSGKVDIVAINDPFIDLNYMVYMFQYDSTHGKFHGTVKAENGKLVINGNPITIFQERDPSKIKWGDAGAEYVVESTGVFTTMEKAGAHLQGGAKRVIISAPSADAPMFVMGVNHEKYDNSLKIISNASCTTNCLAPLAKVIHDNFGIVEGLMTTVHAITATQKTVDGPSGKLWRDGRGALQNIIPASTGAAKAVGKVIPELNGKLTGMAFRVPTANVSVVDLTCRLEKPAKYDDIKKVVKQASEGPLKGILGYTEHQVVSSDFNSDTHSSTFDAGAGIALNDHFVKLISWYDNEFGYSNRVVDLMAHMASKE

Bcl-2-related protein A1 [12] = molecular target: T6, Bcl-2-related protein A1 (Mus musculus, UniProt Q07440); assay: Bfl-1 binding inhibitors, SAR follow-up, biochemical, fluorescence polarization (AID 1070)
T6 sequence (Q07440 whole entry): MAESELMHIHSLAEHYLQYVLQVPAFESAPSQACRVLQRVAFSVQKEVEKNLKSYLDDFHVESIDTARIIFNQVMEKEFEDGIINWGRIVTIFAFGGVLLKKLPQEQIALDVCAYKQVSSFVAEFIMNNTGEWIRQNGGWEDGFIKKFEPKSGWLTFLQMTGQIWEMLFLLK

Bcl-2-related protein A1 [13] = molecular target: T6, Bcl-2-related protein A1; assay: small-molecule antagonists of Bfl-1/BH3 interaction – biochemical, TR-FRET, mouse Bfl-1, confirmation (AID 621);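 further: TR-FRET binding of GST-Bfl-1 to FITC-labelled Bid peptide via terbium antibody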
Danio rerio = assay: In Vivo Angiogenesis Dose-Response Confirmation. [Related pubchem assays: 732 (Assay preceding this confirmatory assay.)]; assay type: functional, organism-based

COc1ccc(C2c3ccc4ccccc4c3Oc3ncn(CCCO)c(=N)c32)cc1OC (configuration not stated)
IC50 (Vero [1]): 21.5 µM (active)
CC50 (Vero [2]): 19.7 µM (active)

Cc1cc(C(=O)CN2C(=O)C(=O)N(Cc3ccccc3)C2=O)c(C)n1Cc1ccc(F)cc1
EC50 [3]: > 30 µM (not active)

CCOCCO/C(O)=C1\C(C)=NC2=C(C(=O)CC(c3cccs3)C2)C1c1ccsc1 (configuration not stated)
EC50 (Beta-galactosidase): > 40 µM (inactive)
IC50 [4]: > 69.5 µM (not active)
IC50 [5]: > 40 µM (not active)

O=C1Nc2ccccc2SC(c2ccccc2)C1O (configuration not stated)
IC50 (Estrogen receptor beta [6]): < 1.56 µM (active)
IC50 (Estrogen receptor): 3.02 µM (active)
IC50 [7]: 5.33 µM (active)
IC50 (Genome polyprotein): > 49.8 µM (not active)
IC50 [8]: 35.4 µM (inactive)
IC50 [9]: > 10 µM (not active)
IC50 (Estrogen receptor beta [10]): 0.161 µM (not active)

O=C1C(Cl)=C(N2CCOCC2)C(=O)N1c1ccc([N+](=O)[O-])cc1
IC50 [11]: > 100 µM (not active)
IC50 (Bcl-2-related protein A1 [12]): 1.49 µM (active)
IC50 (Bcl-2-related protein A1 [13]): 2.29 µM (active)

O=C1Nc2c(Cl)cc(Cl)cc2/C1=C1/Nc2ccccc2C1=O
IC50 (Danio rerio): 4.24 µM (active)

— ChEMBL document CHEMBL1201862, “PubChem BioAssay data set” (2004)
